Square brackets hold non-standard residues; d marks the D form. Ends that are not written are not given here.
Assays:
[1] = test system: SK-LU-1 lung cancer cells; type: cell-based, human; conditions: for effect of antagonist on inhibition of serum-stimulated growth by Ang-(1-7): SK-LU-1, antagonist pretreatment (1 μM); for effect on serum-stimulated ^3H-thymidine incorporation: SK-LU-1, peptide at 1 or 100 nM
Description: Cells were grown to subconfluence in either 24-well cluster plates or 100 mm dishes and made quiescent by treatment for 48 h with serum-depleted growth media, prior to the experiments outlined below to measure cell growth (^3H-thymidine incorporation), cell signaling or apoptosis.
Subsequently, the cell monolayer was washed with cold phosphate-buffered saline (PBS; 50 mM NaPO4, 120 mM NaCl, pH=7.2). The adherent cells were precipitated with cold 10% TCA (4° C. for 30 min) and dissolved in 0.2% SDS in 0.1 N NaOH.
During an additional 4 h, cell monolayers were pulsed with ^3H-thymidine (0.25 μCi/well) and harvested.

VSMCs = conditions: pretreatment; U.S. Pat. No. 7,375,073; cited from earlier work
AT1 angiotensin receptor = conditions: literature; cited from earlier work
AT2 angiotensin receptor = biological target: T1, AT2 angiotensin receptor (Homo sapiens, UniProt P50052); conditions: literature; cited from earlier work
T1 sequence (P50052 1-363): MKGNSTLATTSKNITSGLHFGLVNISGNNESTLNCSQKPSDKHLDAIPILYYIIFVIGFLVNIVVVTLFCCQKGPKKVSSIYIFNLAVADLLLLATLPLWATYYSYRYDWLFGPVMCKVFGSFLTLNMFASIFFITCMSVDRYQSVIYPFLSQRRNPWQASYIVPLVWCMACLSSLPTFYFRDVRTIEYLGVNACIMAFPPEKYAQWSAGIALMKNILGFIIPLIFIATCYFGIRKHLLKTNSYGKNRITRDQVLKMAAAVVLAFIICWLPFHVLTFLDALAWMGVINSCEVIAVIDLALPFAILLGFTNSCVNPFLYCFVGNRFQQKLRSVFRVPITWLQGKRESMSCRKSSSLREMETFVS

EA.hy.926 cells = experiment: Tube formation of endothelial cells in Matrigel; type: cell-based, human; conditions: selective Ang-(1-7) receptor antagonist
Description: These cells are a transformed human endothelial cell line derived from umbilical vein endothelial cells. They retain their endothelial phenotype and were previously used to study angiogenesis.
After a 16 h incubation period to allow tube formation, cultures were photographed and branch points were counted, to quantify tube formation.

Sequence of AT1 angiotensin receptor (P30556 whole entry): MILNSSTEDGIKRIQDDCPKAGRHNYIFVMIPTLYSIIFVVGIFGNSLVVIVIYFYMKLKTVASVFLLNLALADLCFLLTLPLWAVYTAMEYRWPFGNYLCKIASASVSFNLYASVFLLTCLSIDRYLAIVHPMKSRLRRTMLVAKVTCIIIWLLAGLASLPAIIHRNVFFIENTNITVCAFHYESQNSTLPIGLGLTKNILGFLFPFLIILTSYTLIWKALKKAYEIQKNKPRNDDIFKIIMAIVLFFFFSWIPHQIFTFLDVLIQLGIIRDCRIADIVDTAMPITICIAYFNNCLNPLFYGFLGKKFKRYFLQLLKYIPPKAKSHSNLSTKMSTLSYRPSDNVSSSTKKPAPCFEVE

Compound	effect of antagonist on inhibition of serum-stimulated growth by Ang-(1-7) [1]	effect on serum-stimulated ^3H-thymidine incorporation [1]	other results
CCCCc1nc(Cl)c(CO)n1Cc1ccc(-c2ccccc2-c2nn[nH]n2)cc1 [Losartan]	neither AT1 nor AT2 angiotensin receptor antagonists Losartan and PD123177, respectively, were effective	–	–
Cc1cc(Cn2cnc3c2CC(C(=O)O)N(C(=O)C(c2ccccc2)c2ccccc2)C3)ccc1N (stereo not drawn) [PD123177]	neither AT1 nor AT2 angiotensin receptor antagonists Losartan and PD123177, respectively, were effective	–	–
CCN(CC)CC.Nc1ncnc2c1ncn2[C@@H]1O[C@@H]2COP(O)(=S)O[C@H]2[C@H]1O (stereo partly drawn) [Rp-cAMPS, Rp-adenosine-3′,5′-cyclic monphospho-phorothioate triethylamine salt]	–	–	effect on the reduction in serum-stimulated ^3H-thymidine incorporation by Ang-(1-7) or carbacyclin (VSMCs): completely blocked
Arg-Val-Tyr-Ile-His-Pro-Phe (RVYIHPF; listed as Homo sapiens) [Ang-(2-8)]	–	ineffective	–
Asp-Arg-Val-Tyr-Ile-His-Pro-Phe [Ang II]	–	ineffective	–
DRVYIHPFHL [Ang I]	–	ineffective	–
Val-Tyr-Ile-His-Pro (VYIHP; listed as Homo sapiens) [Ang-(3-7)]	–	ineffective	–
Val-Tyr-Ile-His-Pro-Phe (VYIHPF; listed as Homo sapiens) [Ang-(3-8)]	–	ineffective	–
[D-Ala^7]-Ang-(1-7): a modified form of Ang-(1-7), selective Ang-(1-7) antagonist (DRVYIH[dA]) [reference compound]	blocked	–	competition at the AT1 receptor (AT1 angiotensin receptor): poor competitor; competition at the AT2 receptor (AT2 angiotensin receptor): poor competitor
[D-Pro^7]-Ang-(1-7): a selective Ang-(1-7) receptor antagonist [reference compound]	–	–	effect on Ang-(1-7)-mediated reduction in tube formation (EA.hy.926 cells): prevented

— patent US20140296143A1, “Angiotensin-(1-7) As A Chemoprevention Agent” (Wake Forest Innovations, priority 2008, published 2014)
